# Experimental data: patent US20230398130A1, “METHODS AND COMPOSITIONS FOR DIFFERENTIATING STEM CELLS” (Massachusetts Institute of Technology, priority 2020, published 2023)
# Experiments:
# [1] = tested on: ISC-enriched organoids; experiment: Primary screen, 384-well 2.5-D organoid differentiation (ENR+CD, 6 days): basal lysozyme secretion (LYZ.NS); assay type: cell-based, murine; conditions: for Dose.FC.LYZ.NS: FC vs plate median; for Z.LYZ.NS: standard z score of FC
# Source text: (§1) High-throughput screening.
# [2] = tested on: ISC-enriched organoids; experiment: Primary screen, 384-well 2.5-D organoid differentiation (ENR+CD, 6 days): carbachol-induced lysozyme secretion (LYZ.S); assay type: cell-based, murine; conditions: FC vs plate median
# Source text: as §1
# [3] = tested on: ISC-enriched organoids; experiment: Primary screen, 384-well 2.5-D organoid differentiation (ENR+CD, 6 days, Target Selective Inhibitor Library, vs whole-plate median): ATP (CellTiter-Glo 3D, CTG); conditions: for Dose.FC.CTG: FC vs plate median; for Z.CTG: standard z score of FC
# [4] = primary screen, dose 0.08 uM, ENR+CD 6 days
# [5] = primary screen, dose 0.40 uM, ENR+CD 6 days
# [6] = primary screen, dose 2.00 uM, ENR+CD 6 days
# [7] = primary screen, dose 10.00 uM, ENR+CD 6 days
SMILES,"Dose.FC.LYZ.NS [1, 4] [log 2 fold change]","Z.LYZ.NS ([1]; primary screen, dose 0.08 uM)","Dose.FC.LYZ.NS [1, 5] [log 2 fold change]","Z.LYZ.NS ([1]; primary screen, dose 0.40 uM)","Dose.FC.LYZ.NS [1, 6] [log 2 fold change]","Z.LYZ.NS ([1]; primary screen, dose 2.00 uM)","Dose.FC.LYZ.NS [1, 7] [log 2 fold change]","Z.LYZ.NS ([1]; primary screen, dose 10.00 uM)","Dose.FC.LYZ.S [2, 4] [log 2 fold change]","Dose.FC.LYZ.S [2, 5] [log 2 fold change]","Dose.FC.LYZ.S [2, 6] [log 2 fold change]","Dose.FC.LYZ.S [2, 7] [log 2 fold change]","Dose.FC.CTG [3, 4] [log 2 fold change]","Z.CTG ([3]; primary screen, dose 0.08 uM)","Dose.FC.CTG [3, 5] [log 2 fold change]","Z.CTG ([3]; primary screen, dose 0.40 uM)","Dose.FC.CTG [3, 6] [log 2 fold change]","Z.CTG ([3]; primary screen, dose 2.00 uM)","Dose.FC.CTG [3, 7] [log 2 fold change]","Z.CTG ([3]; primary screen, dose 10.00 uM)",further results
CN1CCCCC1Cn1cc(C(=O)c2cc([N+](=O)[O-])ccc2I)c2ccccc21 (stereo not drawn) [AM1241],0.052,0.454,0.004,0.035,−0.014,−0.123,−0.003,−0.028,0.046,0.088,−0.017,−0.080,0.159,0.379,−0.054,−0.129,−0.062,−0.147,−0.001,−0.002,
C[C@H]1COC2=C1C(=O)C(=O)c1c2ccc2c1CCCC2(C)C [Cryptotanshinone],,,,,,,,,,,,,,,,,,,,,"Dose.FC.LYZ.NS ([1]; Dose 0.08 uM, ENR+CD, 6 days): 0.143 log 2 fold change; Z.LYZ.NS ([1]; Dose 0.08 uM): 1.243; Dose.FC.LYZ.NS ([1]; Dose 0.40 uM, ENR+CD, 6 days): −0.120 log 2 fold change; Z.LYZ.NS ([1]; Dose 0.40 uM): −1.047; Dose.FC.LYZ.NS ([1]; Dose 2.00 uM, ENR+CD, 6 days): −0.182 log 2 fold change; Z.LYZ.NS ([1]; Dose 2.00 uM): −1.585; Dose.FC.LYZ.NS ([1]; Dose 10.00 uM, ENR+CD, 6 days): −0.288 log 2 fold change; Z.LYZ.NS ([1]; Dose 10.00 uM): −2.506; Dose.FC.LYZ.S ([2]; Dose 0.08 uM, ENR+CD, 6 days): 0.156 log 2 fold change; Dose.FC.LYZ.S ([2]; Dose 0.40 uM, ENR+CD, 6 days): −0.105 log 2 fold change; Dose.FC.LYZ.S ([2]; Dose 2.00 uM, ENR+CD, 6 days): −0.288 log 2 fold change; Dose.FC.LYZ.S ([2]; Dose 10.00 uM, ENR+CD, 6 days): −0.432 log 2 fold change; Dose.FC.CTG ([3]; Dose 0.08 uM, ENR+CD, 6 days): 0.199 log 2 fold change; Z.CTG ([3]; Dose 0.08 uM): 0.475; Dose.FC.CTG ([3]; Dose 0.40 uM, ENR+CD, 6 days): −0.027 log 2 fold change; Z.CTG ([3]; Dose 0.40 uM): −0.065; Dose.FC.CTG ([3]; Dose 2.00 uM, ENR+CD, 6 days): −0.184 log 2 fold change; Z.CTG ([3]; Dose 2.00 uM): −0.439; Dose.FC.CTG ([3]; Dose 10.00 uM, ENR+CD, 6 days): −0.541 log 2 fold change; Z.CTG ([3]; Dose 10.00 uM): −1.292"
C[C@@H]1COCCN1c1cc(C2(S(C)(=O)=O)CC2)nc(-c2cccc3[nH]ccc23)n1 [AZ20],0.042,0.365,−0.140,−1.222,−0.215,−1.868,−0.261,−2.271,−0.038,−0.236,−0.373,−0.329,−0.210,−0.500,−0.218,−0.521,−1.054,−2.519,−0.573,−1.368,
